Measured values: patent US8187822B2, “Methods to identify modulators” (Givaudan S.A., priority 2007, dated 2012)
One block for each molecule: values may come before it.

Tests used:
Type in all cases: cell-based
[1] = target: T1, TAS2R16 (Homo sapiens, UniProt Q9NYV7); assay: Fluo-4 calcium assay, cells expressing TAS2R16 (control of antagonist specificity)
T1 construct: The full length gene of human TAS2R44 was amplified by polymerase chain reaction (PCR) using gene-specific primers that span the entire coding region; RSS tag (first 45 amino acids of rat somatostatin receptor subtype 3) (N); expressed in transfected cells; host or cells: HEK293T cells expressing Gα16-gustducin44
T1 sequence (Q9NYV7 1-291): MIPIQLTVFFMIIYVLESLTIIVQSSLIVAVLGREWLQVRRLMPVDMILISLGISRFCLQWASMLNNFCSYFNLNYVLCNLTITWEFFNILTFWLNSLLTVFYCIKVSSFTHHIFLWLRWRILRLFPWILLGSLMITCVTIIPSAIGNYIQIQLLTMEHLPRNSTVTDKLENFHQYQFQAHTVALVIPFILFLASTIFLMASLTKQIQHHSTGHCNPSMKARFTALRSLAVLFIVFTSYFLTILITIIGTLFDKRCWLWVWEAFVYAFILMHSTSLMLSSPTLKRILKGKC
Protocol: (§1) At day 0, the HEK293T cell line expressing Gα16-gustducin44 and a TAS2R bitter taste receptor formed as described in examples 2b or 2c was seeded in antibiotic-free growth medium (standard DMEM with 10% (v/v) heat-inactivated fetal bovine serum, 2 mM L-glutamine[…]) into black wall/clear bottom 96-well plates, coated with poly(ethylenimine) (0.005% v/v) at a concentration of 15,000 cells per well and incubated for 48 hours in humidified atmosphere (37° C., 5% CO2).
(§2) At the time of the assay, the growth medium was discarded and the cells were in humidified atmosphere (37° C., 5% CO2) for 1 hour with 50 μl of loading buffer consisting of 1.5 μM Fluo-4 AM and […] probenicid (Sigma-Aldrich, St. Louis, Mo., US) in DMEM.
(§3) Afterwards, the 96-well plate was washed 5 times with 100 μl of assay buffer (130 mM NaCl, 5 mM KCl, 10 mM HEPES, 2 mM CaCl2, and 5 mM dextrose, pH 7.4) per well, using an automated plate washer (BioTek). The plate was further incubated for 30 minutes at room temperature in the dark to allow for complete de-esterification of the Fluo-4. Afterwards the plate was washed 5 times with 100 μl of assay buffer per well, and reconstituted with 100 μl of assay buffer per well.
(§4) For assay reading, the plate was placed in a Fluorometric Imaging Plate Reader (FLIPR) (FLIPR-TETRA™, Molecular Devices, Sunnyvale, Calif., US), and receptor activation was initiated by addition of 100 μl of a twofold concentrated agonist stock solution (to give the desired agonist end concentration when added to the 100 microliter assay buffer volume), which was prepared in assay buffer.
(§5) Fluorescence was continuously monitored for 20 seconds to give a signal baseline (averaged to give F0) prior to agonist addition and for 120 seconds after agonist addition. The change in signal divided by F0 gives ΔF/F0 indicated in the table, with ΔF being the maximum signal occurring within the 120 seconds minus the minimum signal (occurring within the 120 seconds after agonist addition.
(§6) All data was collected from at least two independent experiments each carried out in triplicate.
(§7) A concentration-response analysis was performed and EC50 values were calculated by nonlinear regression using the function f(x)=(a−d)/(1+(x/C)^nh)+d; with a=minimum signal, d=maximum signal, nh=hill coefficient, C=EC50, and x=agonist concentration. EC50 is the molar concentration of an agonist which produces 50% of the maximum possible effective response for that agonist.
(§8) The obtained calcium signals were corrected for the response of cells expressing only the G Protein α subunit (Gα16-gustducin44) and normalized to the fluorescence of cells prior to the stimulus using ΔF/F0 (Fmax−Fmin/F0).
All cells were HEK293T cells stably expressing Gα16-gustducin44, or expressing Gα16-gustducin44 and a TAS2R receptor (TAS2R44, TAS2R16).
The method was carried out as described in example 3 subject to the following modifications: The samples were tested with and without test compound A (test cpd A) and the signals were compared. The test compound was dissolved in dimethylsulfoxide (DMSO), and a negative control with equivalent DMSO concentration (0.02%) was performed accordingly to exclude a potential inhibitory effect of the solvent.
As a control of antagonist specificity, the response of an unrelated bitter taste receptor (TAS2R16) to its agonist phenyl-β-glucopyranosides is also detected (see results in table 8 herein below).

[2] = system: cells expressing only Gα16gustducin44 but no TAS2 receptor; assay: Fluo-4 calcium assay, negative control cells without bitter receptor
Protocol: HEK293T/Gα16-gustducin 44 cells were used; they are formed as described in WO 2004/055048. The host cell line HEK-293T is commercially available from the American Tissue Culture Collection (ATCC), ATCC®# CRL-11268
as §1, §2, §3, §4, §5, §8
To confirm that the cell line formed in example 2c stably expresses the bitter taste receptor TAS2R44, a concentration-response curve for saccharin, a known agonist of TAS2R44, was generated. […] The standard deviation (+/−STD) is also indicated.
As a negative control to determine unspecific signals, each of the applied concentrations of sucralose was applied to cells expressing only Gα16gustducin44.
As a negative control, each agonist and each agonist with the antagonist/test compound (test cpd A) is applied to cells expressing only Gal 6gustducin44 but no TAS2 receptor (see results in table 7 herein below).

[3] = target: T2, TAS2R44 (Homo sapiens, UniProt P59538, L162M); assay: Fluo-4 calcium assay, HEK293T cells expressing Gα16-gustducin44 and TAS2R44
T2 construct: RSS tag (first 45 amino acids of rat somatostatin receptor subtype 3, plus EcoRI site) (N); expressed in transfected cells
T2 sequence (P59538 with tags, fused parts or gaps L162M): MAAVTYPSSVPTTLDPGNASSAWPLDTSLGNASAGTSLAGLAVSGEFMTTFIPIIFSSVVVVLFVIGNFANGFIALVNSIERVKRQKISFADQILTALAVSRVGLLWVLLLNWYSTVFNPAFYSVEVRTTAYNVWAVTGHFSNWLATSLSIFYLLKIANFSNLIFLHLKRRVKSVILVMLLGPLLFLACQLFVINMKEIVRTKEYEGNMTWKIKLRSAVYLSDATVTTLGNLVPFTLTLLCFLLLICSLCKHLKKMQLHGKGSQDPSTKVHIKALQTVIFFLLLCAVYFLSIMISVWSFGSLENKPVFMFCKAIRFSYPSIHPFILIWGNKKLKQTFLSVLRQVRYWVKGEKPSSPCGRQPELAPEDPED
Protocol: Cell lines that stably expresses a SABR (TAS2R44, TAS2R1, TAS2R10) was generated by transfecting pcDNA3.1Zeo-SABR into HEK293T/Gα16-gustducin 44 cells (both formed as described in example 1). The host cell line HEK-293T is commercially available from the American Tissue Culture Collection (ATCC), ATCC®# CRL-11268.
The expression of TAS2R44 was evaluated by testing for the presence of a functional response to the known TAS2R44 agonist saccharin (as described in WO 2004/029087) in addition to sucralose, which was determined via automated calcium imaging on the FLIPR-TETRA™ (Molecular Devices, Sunnyvale, Calif., US) as described in example 3. One clone was selected resulting in the HEK293T/Gα16-gustducin 44/TAS2R44 cell line.
Fluo-4AM (Invitrogen, Carlsbad, Calif., US) is a fluorescent indicator of intracellular calcium dynamics (change in concentration) and allows monitoring changes in the calcium concentration, particularly an increase in response to receptor activation occurring after agonist exposure.
as §1, §2, §3, §4, §5, §6, §7
The obtained calcium signals were corrected for the response of cells expressing only the G Protein α subunit (Gα16-gustducin44) and normalized to the fluorescence of cells prior to the stimulus using ΔF/F0 (Fmax−Fmin/F0). […]

P-β-G ΔF/F0 ([1]; P-β-G alone 0.0391 mM): 0.012
P-β-G ΔF/F0 ([1]; P-β-G alone 0.0781 mM): 0.213
P-β-G ΔF/F0 ([1]; P-β-G alone 0.1563 mM): 0.926
P-β-G ΔF/F0 ([1]; P-β-G alone 0.3125 mM): 1.810
P-β-G ΔF/F0 ([1]; P-β-G alone 0.6250 mM): 2.284
P-β-G ΔF/F0 ([1]; P-β-G alone 1.2500 mM): 2.361
P-β-G ΔF/F0 ([1]; P-β-G alone 2.5000 mM): 2.578
P-β-G ΔF/F0 ([1]; P-β-G alone 5.0000 mM): 2.693
P-β-G ΔF/F0 ([1]; P-β-G alone 10.0000 mM): 2.876
EC50 ([1]; agonist P-β-G alone, TAS2R16): 210 ± 20 µM
SMILES: OC[C@H]1O[C@@H](Oc2ccccc2)[C@H](O)[C@@H](O)[C@@H]1O [P-β-G, phenyl-β-glucopyranoside]

SMILES: O=C1NS(=O)(=O)c2ccccc21 [Saccharin, saccharin]
signal in negative control, in words ([2]; host cells expressing only Gα16-gustducin44): did not show any significant change in signal
Neg. Control ΔF/F0 ([2]; saccharin 0.0391 mM): 0.016
Neg. Control ΔF/F0 ([2]; saccharin 0.0781 mM): 0.014
Neg. Control ΔF/F0 ([2]; saccharin 0.1563 mM): 0.014
Neg. Control ΔF/F0 ([2]; saccharin 0.3125 mM): 0.012
Neg. Control ΔF/F0 ([2]; saccharin 0.6250 mM): 0.014
Neg. Control ΔF/F0 ([2]; saccharin 1.2500 mM): 0.014
Neg. Control ΔF/F0 ([2]; saccharin 2.5000 mM): 0.013
Neg. Control ΔF/F0 ([2]; saccharin 5.0000 mM): 0.018
Neg. Control ΔF/F0 ([2]; saccharin 10.0000 mM): 0.020

effect on the response of TAS2R16 to phenyl-β-glucopyranoside, in words ([1]; test compound at 25 μM): did not effect the response
effect on the response of TAS2R44 to sucralose, in words ([3]; test compound at 25 μM): had no effect
SMILES: CC1CCC(CCCC(N)=O)C1(C)C (stereo not drawn) [test cpd B, 4-(2,2,3-trimethylcyclopentyl)butanamide]
response in cells not expressing TAS2R44 (negative control), in words ([2]; test compound at 25 μM): did not elicit a response

agonist activity at TAS2R44 (calcium signaling), in words ([3]; cells stably expressing human TAS2R44): not to be agonists for TAS2R44
SMILES: COC(=O)[C@H](Cc1ccccc1)NC(=O)[C@@H](N)CC(=O)O [aspartame]
